Laboratory results reported in patent publication EP0046990A2, “2-Halogeno-4-alkyl-4,7-dihydro-7-oxo-thieno(3,2-b)-pyridine-6-carboxylic acids, salts thereof at the carboxyl group, pharmaceutical use thereof, and intermediates thereof” (KANEBO, LTD., priority 1980, dated 1982).
≈ marks a conversion by molar mass, not a printed value.

Key:
[1] = test system: Staphylococcus aureus 209-P; test: antimicrobial test (MIC); assay type: cell-based
Proteus mirabilis 1287 = test: antimicrobial test (MIC); assay type: cell-based
[2] = test system: Bacillus sub-tillis ATCC 6633; test: antimicrobial test (MIC); assay type: cell-based; conditions: ATCC6633
Proteus vulgaris OX-19 = test: antimicrobial test (MIC); assay type: cell-based; conditions: OX19
[3] = test system: Klebsiella pneumoniae IFO 3512; test: antimicrobial test (MIC); assay type: cell-based; conditions: IFO3512
[4] = test system: Serratia marcescens IFO 3046; test: antimicrobial test (MIC); assay type: cell-based; conditions: IFO3046
Escherichia coli NIHJ = test: antimicrobial test (MIC); assay type: cell-based
Escherichia coli K-12 = test: antimicrobial test (MIC); assay type: cell-based; conditions: K12
in vivo = conditions: mouse, oral administration to mice
Excerpt: The compounds of this invention have low toxicity.

CCn1cc(C(=O)O)c(=O)c2sc(Br)cc21 [Compound B, 2-bromo-4,7-dihydro-4-ethyl-7-oxo-thieno(3,2-b)pyridine-6-carboxylic acid]
MIC [1]: > 100 µg/mL
MIC (Proteus mirabilis 1287): 3.13 µg/mL (≈ 10.4 µM)
MIC [2]: 6.25 µg/mL (≈ 20.7 µM)
MIC (Proteus vulgaris OX-19): 6.25 µg/mL (≈ 20.7 µM)
MIC [3]: 3.13 µg/mL (≈ 10.4 µM)
MIC [4]: 1.56 µg/mL (≈ 5.16 µM)
MIC (Escherichia coli NIHJ): 1.56 µg/mL (≈ 5.16 µM)
MIC (Escherichia coli K-12): 6.25 µg/mL (≈ 20.7 µM)

CCn1cc(C(=O)O)c(=O)c2ccc(C)nc21 [Nalidixic acid, reference compound]
MIC [1]: > 100 µg/mL
MIC (Proteus mirabilis 1287): 3.13 µg/mL (≈ 13.5 µM)
MIC [2]: 3.13 µg/mL (≈ 13.5 µM)
MIC (Proteus vulgaris OX-19): 3.13 µg/mL (≈ 13.5 µM)
MIC [3]: 1.56 µg/mL (≈ 6.72 µM)
MIC [4]: 1.56 µg/mL (≈ 6.72 µM)
MIC (Escherichia coli NIHJ): 1.56 µg/mL (≈ 6.72 µM)
MIC (Escherichia coli K-12): 6.25 µg/mL (≈ 26.9 µM)

CCn1cc(C(=O)O)c(=O)c2sc(Cl)cc21 [Compound A, 2-chloro-4,7-dihydro-4-ethyl-7-oxo-thieno(3,2-b)pyridine-6-carboxylic acid]
MIC [1]: > 100 µg/mL
MIC (Proteus mirabilis 1287): 6.25 µg/mL (≈ 24.3 µM)
MIC [2]: 12.5 µg/mL (≈ 48.5 µM)
MIC (Proteus vulgaris OX-19): 12.5 µg/mL (≈ 48.5 µM)
MIC [3]: 6.25 µg/mL (≈ 24.3 µM)
MIC [4]: 3.13 µg/mL (≈ 12.1 µM)
MIC (Escherichia coli NIHJ): 1.56 µg/mL (≈ 6.05 µM)
MIC (Escherichia coli K-12): 12.5 µg/mL (≈ 48.5 µM)

CCn1cc(C(=O)O)c(=O)c2sc(I)cc21 [Compound C, 2-iodo-4,7-dihydro-4-ethyl-7-oxo-thieno(3,2-b)pyridine-6-carboxylic acid]
MIC [1]: 25 µg/mL (≈ 71.6 µM)
MIC (Proteus mirabilis 1287): 0.78 µg/mL (≈ 2.23 µM)
MIC [2]: 1.56 µg/mL (≈ 4.47 µM)
MIC (Proteus vulgaris OX-19): 0.78 µg/mL (≈ 2.23 µM)
MIC [3]: 1.56 µg/mL (≈ 4.47 µM)
MIC [4]: 0.78 µg/mL (≈ 2.23 µM)
MIC (Escherichia coli NIHJ): 1.56 µg/mL (≈ 4.47 µM)
LD50 (in vivo): 2800 mg/kg
MIC (Escherichia coli K-12): 3.13 µg/mL (≈ 8.96 µM)
